From patent US20110052740A1, “Skin Circulation-Improving Agent And Skin Temperature-Elevating Agent” (SHISEIDO COMPANY, LTD., priority 2008, published 2011)

Assays:
sympathetic nerve = assay: Sympathetic nerve suppressing effect (confirmed by the inventors, no method given); settings: statement without data
[1] = Study of effect on skin blood circulation (laser Doppler flow-meter, smelling of test sample); type: in vivo, human; settings: general statement of the inventors' findings; no data shown for substances other than the Arabian jasmine extract
Experimental: The skin blood circulation rate of fingers was measured by use of the laser Doppler flow-meter (ADVANCE LASER FLOW-METER ALF21), and the effect of the Arabian jasmine extract on the skin blood circulation was evaluated.
Six persons (men and women) were employed as subjects, and the test was made in a constant temperature and humidity room having been adjusted at a temperature of 22° C. and a humidity of 45%. Each of the subjects was seated on an easy chair and allowed to take a rest for 30 minutes. Thereafter, a probe of the flow-meter was fitted to the inner surface side of the third finger of the right hand of the subject, and a change in blood circulation rate with the passage of time was recorded. One sequence of measurement tests was composed of (A) a rest for three minutes, (B) attaching of an odorless cotton piece under the nose for three minutes, (C) a rest for three minutes, (D) attaching of a test sample-impregnated cotton piece under the nose for three minutes, (E) a rest for three minutes, (F) attaching of an odorless cotton piece under the nose for three minutes, and (G) a rest for three minutes. The blood circulation rate was measured successively during the one sequence. […]

[2] = Study of effect on skin temperature (smelling of test substance, body temperature logger); type: in vivo, human; settings: for skin temperatures of the fingers: one person, vapor inhaled 3 min from impregnated cotton piece under the nose, 25° C., humidity 50%, FIG. 1; for skin temperatures of the cheeks / skin temperatures of the toes: smell taken with the nose, not illustrated by data
Experimental: The skin temperature of fingers was measured by use of 8ch Body Temperature Logger (supplied by Nikkiso-Therm Co., Ltd.), and a change in skin temperature due to smelling of a test substance was investigated. The effect on the peripheral skin temperature was thus studied. A solvent extract of a common jasmine (Jasminum officinale) belonging to the Jasminum genus in the Oleaceae family was used as a control, and the evaluation was made in the same manner.
A person was employed as a subject, and the test was made in a constant temperature and humidity room at a temperature of 25° C. and a humidity of 50%.
The subject was seated on an easy chair and allowed to take a rest for 30 minutes. […] The change in peripheral skin temperature was evaluated by use of a value (T value) obtained by subtracting a mean value of the skin temperatures at the two sites of the chest from the mean value of the skin temperatures at the two fingertip sites.
One sequence of measurement tests was composed of (A) a rest for three minutes, (B) attaching of an odorless cotton piece under the nose for three minutes, (C) a rest for three minutes, (D) attaching of a test sample-impregnated cotton piece under the nose for three minutes, (E) a rest for three minutes, (F) attaching of an odorless cotton piece under the nose for three minutes, and (G) a rest for three minutes. The skin temperature was measured successively during the one sequence, and the T values were calculated.
The T values obtained at the times of (B) and (F), at each of which the odorless cotton piece was attached, were taken as the controls and were compared with the T value obtained at the time of (D), at which the vapor of the test sample was inhaled. The effect of each substance on the skin temperature was thus investigated. Specifically, the formula shown below was utilized.
Skin temperature change (° C.)=T value (D)−(mean value of T value (B) and T value (F))

SMILES | sympathetic nerve suppressing effect (sympathetic nerve) | rate of the skin blood circulation (summary of findings) [1] | skin temperatures of the fingers [2] | skin temperatures of the cheeks [2] | skin temperatures of the toes [2]
CCCCC1OC(=O)CC1C (stereo not shown) [3-methyloctano-4-lactone] | has a sympathetic nerve suppressing effect | increases | increased | could be increased | could be increased
CC(=O)OC1CC2CCC1(C)C2(C)C (stereo not shown) [bornyl acetate] | has a sympathetic nerve suppressing effect | increases | increased | could be increased | could be increased
